Measurements as given in article PMC2804746 (Biochemistry, 2008).

What was measured:
taTrxR (Ta0984) = molecular target: T1, taTrxR (Ta0984) (Thermoplasma acidophilum, UniProt Q9HJI4); assay: X-ray crystal structure, […] Å; type: binding; conditions: one FAD per monomer, co-purified; crystals at pH 5.5, room temperature
T1 sequence (Q9HJI4 1-319): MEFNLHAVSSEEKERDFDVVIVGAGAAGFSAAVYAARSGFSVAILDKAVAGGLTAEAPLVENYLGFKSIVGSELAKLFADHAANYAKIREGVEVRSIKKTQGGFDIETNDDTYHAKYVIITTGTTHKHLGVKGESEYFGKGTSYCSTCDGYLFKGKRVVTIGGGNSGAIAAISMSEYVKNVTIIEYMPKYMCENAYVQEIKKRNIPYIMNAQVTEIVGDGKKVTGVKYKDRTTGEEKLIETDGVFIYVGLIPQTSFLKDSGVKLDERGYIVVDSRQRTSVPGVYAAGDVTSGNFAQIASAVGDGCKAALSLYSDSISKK

ecTrxR = ecTrxR (Escherichia coli, UniProt P0A9P4); assay: anaerobic titration, reduction of bound FAD by visible spectra; type: biochemical; conditions: 50 mM TRIS, pH 7.5, 150 mM NaCl, 25 °C
Chain of ecTrxR (P0A9P4 2-321): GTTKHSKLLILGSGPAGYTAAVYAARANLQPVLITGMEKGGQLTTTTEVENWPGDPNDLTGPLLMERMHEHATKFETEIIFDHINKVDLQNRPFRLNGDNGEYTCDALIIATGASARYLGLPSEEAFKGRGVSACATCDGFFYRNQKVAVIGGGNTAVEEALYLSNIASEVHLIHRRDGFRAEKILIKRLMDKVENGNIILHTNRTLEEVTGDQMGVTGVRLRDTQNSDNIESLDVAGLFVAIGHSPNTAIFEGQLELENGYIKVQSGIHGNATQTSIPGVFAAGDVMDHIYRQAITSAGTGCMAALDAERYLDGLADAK

SMILES | X-ray crystal structure, 2.35 Å; visible absorption spectrum (taTrxR (Ta0984)) | anaerobic titration, reduction of bound FAD by visible spectra (ecTrxR)
Cc1cc2nc3c(=O)[nH]c(=O)nc-3n(C[C@H](O)[C@H](O)[C@H](O)COP(=O)(O)OP(=O)(O)OC[C@H]3O[C@@H](n4cnc5c(N)ncnc54)[C@H](O)[C@@H]3O)c2cc1C [FAD] | The taTrxR structure has one FAD molecule bound in a similar conformation as the ecTrxR structure | –
NC(=O)C1=CN([C@@H]2O[C@H](COP(=O)(O)OP(=O)(O)OC[C@H]3O[C@@H](n4cnc5c(N)ncnc54)[C@H](O)[C@@H]3O)[C@@H](O)[C@H]2O)C=CC1 [NADH] | – | NADH does reduce the flavin to some extent in this protein
NC(=O)C1=CN([C@@H]2O[C@H](COP(=O)(O)OP(=O)(O)OC[C@H]3O[C@@H](n4cnc5c(N)ncnc54)[C@H](OP(=O)(O)O)[C@@H]3O)[C@@H](O)[C@H]2O)C=CC1 [NADPH] | – | titration of ecTrxR with NADPH results in a rapid reduction of the bound FAD
